According to a melting point compilation (Tetko et al.; mined from patent text by program, amines drawn as free bases though some values may be those of a salt):

melting point	SMILES
289 to 294 °C	CS(=O)(=O)c1ccc(-c2cnn(-c3cc(Cl)cc(Cl)c3)c(=O)c2-c2ccc(F)cc2)cc1
64 to 66 °C	CSc1cc(C(C)(C)C)nn1C(=O)Cl
240 to 242 °C	Cc1nc(-n2ccc(OCc3ccc(C(F)(F)F)o3)cc2=O)sc1C(=O)NCc1cccnc1
195 to 197 °C	COc1ccc(S(=O)(=O)N2CCc3cccc(-c4ccccn4)c32)cc1
189 °C	CC1CC2C3CC(Cl)C4=CC(=O)C=CC4(C)C3C(O)CC2(C)C1C(=O)COC(=O)C(C)(C)C (configuration not stated)
198 to 200 °C	COc1ccccc1C=C1CS(=O)(=O)CC(=Cc2ccccc2OC)C1=O
120 to 122 °C	Sc1ccc(-n2cnnn2)cc1
231 to 233 °C	Oc1ccc2c(c1)COc1cc3cc(O)ccc3cc1-2
164 to 165 °C	N#CC(=NNc1c(Cl)cc(C(F)(F)F)cc1Cl)c1ccc(Cl)cc1
173 to 175 °C	O=c1[nH]ncc(N2CCN(Cc3ccccc3)CC2)c1Cl
114 to 117 °C	CCCc1nc2c(N)ncc(Br)c2n1CCOCCN
236 to 237 °C	COC(=O)c1nc(NC(=O)Nc2ccccc2)ccc1Oc1nc(OC)cc(OC)n1
164 to 165 °C	Clc1cc(NCCc2c[nH]cn2)ccn1
117 to 118 °C	CC(CC(=O)NC(=O)OC(C)(C)C)Nc1ccccc1 (configuration not stated)
113 to 114 °C	O=C(CC1c2ccccc2S(=O)(=O)C1c1ccccc1)NO (configuration not stated)
223 to 225 °C	NC(=O)N1C[C@@H](O)[C@H](Oc2ccc(Cl)cc2)C1 (relative stereo)
70 °C	CC(C)(C)c1cccc(S(=O)(=O)n2c(Cc3ccc(C4=NOC(=O)C4)cc3)cc3cc(C(F)(F)F)ccc32)c1
250 °C	O=C(Nc1ncc(C(F)(F)F)o1)C1c2ccccc2Oc2cc(F)ccc21 (racemic)
68 to 69 °C	COc1cccc2c(CC(=O)OCC(=O)CCc3ccccc3)coc12
150 to 154 °C	CCOC(=O)c1cc(C)nn1C
108 to 111 °C	CCCc1ccc(OC(C)=O)c(C2(OC(C)=O)C(=O)c3ccccc3C2=O)c1
175 to 177 °C	O=C(O)C(Sc1nc2ccc(Cl)nc2s1)c1ccccc1 (configuration not stated)
99 to 101 °C	O=C(NCc1ccccc1)c1ccnc(N2CCN(Cc3ccc(F)cc3)C2=O)c1
170 °C	Oc1ccc2c(c1)CN(C1CC1)C2

melting point	SMILES
128 to 131 °C	COc1cccc([C@H]2O[C@H](CC(=O)NCc3ccc(C(=O)O)o3)C(=O)N(CC(C)(C)CO)c3ccc(Cl)cc32)c1OC
261 to 266 °C	COc1ccc2c3c(c(Cl)nc2c1)C(=O)c1ccccc1-3
77 °C	O=[N+]([O-])c1ccc2c(c1)C(N1CCCC1)C(O)CC2 (configuration not stated)
143 °C	CC(=O)NC1C(Cl)OC(COC(C)=O)C(OC(C)=O)C1OC(C)=O (configuration not stated)
12.5 °C	CC(C)C/C=C\CCCCCCCCCC(=O)O
176 to 178 °C	Cc1ccc(S(=O)(=O)NCCCCOc2ccc(N)cc2)cc1
261 °C	O=C(NC(Cc1ccc(OCc2ccc(Cl)cc2)cc1)C(=O)O)c1cn2ccc(-c3ccc(Cl)cc3)cc2n1 (configuration not stated)
190 to 191 °C	COCc1c(C(=O)OC(C)C)ncc2[nH]c3cccc(Oc4ccc(Cl)cn4)c3c12
60 °C	c1ccc(OCCSCc2nnc(-c3ccc(OCCCN4CCC4)cc3)o2)cc1
> 230 °C	O=C1Nc2ccccc2C12COc1cc3c(cc12)CCCC3 (configuration not stated)
197 to 202 °C	CC(=NNc1ccc(C2=NNC(=O)CC2)cc1)c1cnccn1
132 to 133 °C	CCCN(CCC)C(=O)C(CO)Nc1nc(-c2ccccc2)nc(C)c1C (configuration not stated)
90 °C	CCOC(=O)C(C(=O)Nc1nccs1)C(=O)c1cccc(C(F)(F)F)c1NC(=O)C(Cl)Cl (configuration not stated)
85 to 87 °C	CC(C)(C)OC(=O)C(CO)NC(=O)c1coc(-c2cocn2)n1 (configuration not stated)
155 to 157 °C	CCOc1ccccc1C1=NN(C(=O)c2cccnc2)CC1
164 to 167 °C	c1ccc(-c2cnc3ncnn3c2)cc1
209 to 211 °C	Cc1ccnc(Nc2nc(-c3cc(-c4ccc(Cl)cc4)no3)cs2)c1
108 to 110 °C	O=c1c(Br)cc(Cl)cn1Cc1ccccc1
192 to 194 °C	CCC1c2cccn2-c2cc(Cl)ccc2N1S(=O)(=O)c1ccc(O)cc1 (configuration not stated)
135 to 137 °C	COc1cc(CC(=O)NCCCc2ccc(C)c(C)c2)ccc1OCCNC(=O)c1ccccc1OC(C)=O
57.5 to 58.5 °C	BrC12CCCC(C1)C1CCC2C1 (configuration not stated)
168 °C	Cc1cccc(CN(Cc2cccc(C)n2)C(c2ccccn2)c2ccccn2)n1
136 to 138 °C	CN1CCN(c2cc(Cl)cc3c2c(=O)n(CCc2ccccc2)c(=O)n3Cc2ccccc2)CC1
116 to 120 °C	CC(C)(C)NC(=O)[C@@H]1CC(=O)CN1C(=O)[C@@H](O)[C@H](Cc1ccccc1)NC(=O)[C@H](CC(N)=O)NC(=O)OCc1ccccc1

melting point	SMILES
185 to 186 °C	O=C1NC(=O)c2ccccc2/C1=C/Nc1ccc(CN2CCCCC2)cc1
79.9 to 82.1 °C	CC(=O)NC[C@H]1CN(c2ccc(-n3nccc3-c3ccccn3)c(F)c2)C(=O)O1
222 to 224 °C	CN(C(=O)c1cnn(C)c1C(=O)Nc1ccn2nc(N3CCOCC3)nc2c1)C1CCCC1
111 to 112 °C	C=CCn1c(=O)n(-c2cccc(C)n2)c2ncccc21
228 to 245 °C	COC(=O)c1cccc(Nc2nc(-c3cccnc3)nc3ccccc23)c1
264 to 268 °C	COc1ccc2c(c1)c1c3c(c(-c4c(Cl)cccc4OC)cc1n2CCO)C(=O)NC3=O
185 °C	COc1cc2[nH]c3ncnc(N4CCNCC4)c3c2cc1OC
206 to 207 °C	CC1(C)CC(C(O)CNc2nc(Cl)nc(NCC(O)C3CC(C)(C)NC(C)(C)C3)n2)CC(C)(C)N1 (configuration not stated)
157 to 159 °C	O=C(O)c1ccc(NCCCCCCOc2ccc3ccccc3c2)cc1
229 to 231 °C	Cc1ccc(C(=O)n2c3c(c4cc(F)ccc42)CC(C(=O)O)CC3)cc1 (configuration not stated)
118 to 120 °C	COc1cc2cc(OCCCN3CCCCC3)ccc2c2ccc(OCCCN3CCCCC3)cc12
99 to 101 °C	CC(C)(C)NC(=O)Nc1ccc([N+](=O)[O-])cc1O
96 to 98 °C	Nc1ccccc1C(=O)NCCCn1cncn1
59 to 62 °C	COc1cc(C(=O)CS(=O)(=O)N(C)C)c(N)cc1Cl
166 °C	CCCCOc1cc(C=C(C)C(=O)O)ccc1-c1cccc(CNCC(=O)c2ccccc2)c1
180 °C	CCCCCCCCCCCCn1c(=O)c(=O)[nH]c2c3ccccc3ccc21
110 °C	COc1ccc(Nc2ccc(CO)cc2)cc1
45 °C	COc1cc(Cl)cc(Cl)c1C1=NC(C)(C)CO1
45 to 46 °C	S=C=Nc1cccc2ccoc12
106 to 108 °C	CCN(CC)c1ccc(S(=O)(=O)NCCCCC(=O)O)cc1
117 to 120 °C	CCNC(=S)NC1CCCCc2sccc21 (configuration not stated)
164 °C	Cc1cc(SCc2ccc(OCc3ccc(Cl)cc3)cc2)ccc1OCC(=O)O
181 to 182 °C	COc1cc(C)c(NC(=O)CC(C)(C)C)c(C)c1Cc1ccc(C(C)C)cc1
308 to 310 °C	C=C(C)[C@@H]1CC[C@]2(C(=O)O)CC[C@]3(C)[C@H](CC[C@@H]4[C@@]5(C)CC[C@H](OC(=O)[C@H]6C[C@@H](C(=O)O)C6(C)C)C(C)(C)[C@@H]5CC[C@]43C)[C@@H]12

melting point	SMILES
> 275 °C	NC1CC(N)(C(=O)O)C2C(C(=O)O)C12 (configuration not stated)
100 to 103 °C	O=C(NCCCCCO)c1cc([N+](=O)[O-])cc([N+](=O)[O-])c1Cl
95 to 97 °C	COc1cccc(C(=C/C=C/C(=O)Oc2ccc([N+](=O)[O-])cc2)c2cccc(OC)c2)c1
128 to 129 °C	COCC1CN(c2ccc3cc(OCCS(C)(=O)=O)ccc3c2)C(=O)O1 (configuration not stated)
158 °C	O=C1C(=O)N(c2cccc3ccccc23)C(=O)N1c1ccc(Cl)cc1
141 to 146 °C	CNC(=O)c1nc2ccc3c(c2c(-c2ccc4c(c2)OCO4)c1C)OCO3
113 to 114 °C	CC(=O)N1CCc2ccc(C(O)CCCN3CCC(c4ccc(Cl)cc4)CC3)cc2CC1 (configuration not stated)
105 to 106 °C	CCOc1cc(Cn2cc(CCC(=O)O)c(OCC)n2)ccc1OCc1nc(-c2ccccc2)oc1C
193 °C	Cc1nc(Cl)c2c(c1O)COC2CCc1ccccc1 (configuration not stated)
167 to 170 °C	CC1(C)CCC(C)(C)c2cc(N(Cc3cccs3)C(=O)Nc3ccc(C(=O)O)cc3)ccc21
119 to 124 °C	CC1Cc2ccc([Si](C)(C)C)c(S(=O)(=O)NC(C)(C)C)c2S1 (configuration not stated)
72.5 to 73.5 °C	O=C(O)C(O)(C(F)F)C(F)F
152 °C	COc1nccnc1NS(=O)(=O)c1scc(Cl)c1Cl
247 to 249 °C	Cc1nccn1-c1cnc2[nH]cc(C(=O)C(C)(C)C)c2n1
81 to 82 °C	COC(=O)C1=C(C)NC(C)=C(C(=O)OCOC(=O)C(C)(C)C)C1c1ccccc1 (single isomer, unassigned; (+))
195 to 198 °C	CCn1cc(C(=O)O)c(=O)c2cc(F)c(N3CC4CC3CN4Cc3ccccc3)c(F)c21 (configuration not stated)
158 to 159 °C	Cc1nc(N2CCc3ccccc3CC2)c(C#N)c(=O)n1CC=C(F)F
140 to 141 °C	CCCCN1C(=O)[C@@H]2[C@H](C1=O)[C@H](c1ccc(C#N)cc1)N(C(C)=O)[C@H]2C (racemic)
55 to 57 °C	O=C(N[C@@H]1CCC[C@H]1O)C(O)=CC(=O)c1cc(Cc2ccc(F)cc2F)cn(Cc2ccccc2F)c1=O
144 to 146 °C	CSc1ccc(-c2c(Cl)nc(Cl)nc2-c2ccc(Cl)cc2)cc1
250 °C	O=C1CC(c2cccc(-n3ccnc3)c2)=Nc2cc(O)c(-c3ccc(F)cc3)cc2N1

SMILES	melting point
N#Cc1nn(-c2c(Cl)cc(C(F)(F)F)cc2Cl)c(N)c1C1C=CCCCC1 (configuration not stated)	158 to 159 °C
Cc1ccc(C2=CCN(CCCc3nnc4n3CCCCC4)CC2)cc1	93 to 96 °C
COc1cc(C2C3=C(COC3=O)N(C)c3cc4c(cc32)OCO4)cc(OC)c1O (configuration not stated)	250 °C
COc1ccc2[nH]cc(C3=CCN(C[C@H](O)COc4cccc5[nH]ccc45)CC3)c2c1	105 to 110 °C
